Results published in US7109193B2, “Tricyclic diazepines tocolytic oxytocin receptor antagonists” (Wyeth, priority 2001, dated 2006).

Molecular target: T1, human oxytocin receptor (Homo sapiens, UniProt P30559)
T1 construct: host or cells: CHO cells (pcDNA3.1 vector)
T1 sequence (P30559 1-389): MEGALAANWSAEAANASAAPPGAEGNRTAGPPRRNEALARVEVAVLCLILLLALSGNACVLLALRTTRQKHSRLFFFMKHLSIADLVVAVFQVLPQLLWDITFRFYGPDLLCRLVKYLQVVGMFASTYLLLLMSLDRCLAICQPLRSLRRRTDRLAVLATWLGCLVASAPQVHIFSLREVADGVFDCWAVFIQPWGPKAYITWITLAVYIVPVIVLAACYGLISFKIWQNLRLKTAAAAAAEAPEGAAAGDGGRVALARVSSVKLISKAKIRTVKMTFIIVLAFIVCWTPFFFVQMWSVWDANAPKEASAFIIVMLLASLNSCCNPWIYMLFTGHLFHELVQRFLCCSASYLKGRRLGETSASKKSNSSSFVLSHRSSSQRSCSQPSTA
Assay: Oxytocin binding in Chinese Hamster Ovary cell membranes expressing human oxytocin receptors
Conditions: 100 nM, CHO cell membranes, [3H]oxytocin, values without parentheses; for inhibition at 0.1 µM: read-out: OT % inhibition @ 100% nM

| Structure (SMILES) | inhibition at 0.1 µM | OT % inhibition @ 100% nM |
| --- | --- | --- |
| Cc1cccc(N2CCN(C(=O)c3ccc4n3Cc3ccccc3N(C(=O)c3ccc(-c5ccccc5C(F)(F)F)c(C)c3)C4)CC2C)c1 (stereo not drawn) [Example 5, [3-Methyl-4-(3-methyl-phenyl)-piperazin-1-yl]-[10-(2-methyl-2′-trifluoromethyl-[1,1′-biphenyl]-4-yl)carbonyl]-10,11-dihydro-5H-pyrrolo[2,1-c][1,4]benzodiazepin-3-yl-methanone] | – | 24% |
| Cc1ccccc1-c1ccc(C(=O)N2Cc3ccc(C(=O)N4CC[C@@H](N(C)C)C4)n3Cc3ccccc32)cc1C [Example 274, [(3R)-3-(Dimethylamino)pyrrolidinyl]{10-[(2,2′-dimethyl[1,1′-biphenyl]-4-yl)carbonyl]-10,11-dihydro-5H-pyrrolo[2,1-c][1,4]benzodiazepin-3-yl}methanone] | – | 103% |
| COc1cc(C(=O)N2Cc3ccc(C(=O)N4CC[C@@H](N(C)C)C4)n3Cc3ccccc32)ccc1-c1ccccc1C [Example 281, [(3R)-3-(Dimethylamino)pyrrolidinyl]{10-[(2-methoxy-2′-methyl[1,1′-biphenyl]-4-yl)carbonyl]-10,11-dihydro-5H-pyrrolo[2,1-c][1,4]benzodiazepin-3-yl}methanone] | – | 93% |
| COc1cccc(-c2ccc(C(=O)N3Cc4ccc(C(=O)N5CC[C@@H](N(C)C)C5)n4Cc4ccccc43)cc2OC)c1 [Example 283, {10-[(2,3′-Dimethoxy[1,1′-biphenyl]-4-yl)carbonyl]-10,11-dihydro-5H-pyrrolo[2,1-c][1,4]benzodiazepin-3-yl}[(3R)-3-(dimethylamino)pyrrolidinyl]methanone] | – | 91% |
| COc1ccccc1-c1ccc(C(=O)N2Cc3ccc(C(=O)N4CC[C@@H](N(C)C)C4)n3Cc3ccccc32)cc1 [Example 279, [(3R)-3-(Dimethylamino)pyrrolidinyl]{10-[(2′-methoxy[1,1′-biphenyl]-4-yl)carbonyl]-10,11-dihydro-5H-pyrrolo[2,1-c][1,4]benzodiazepin-3-yl}methanone] | – | 100% |
| COc1ccccc1-c1ccc(C(=O)N2Cc3ccc(C(=O)N4CC[C@@H](N(C)C)C4)n3Cc3ccccc32)cc1OC [Example 282, {10-[(2,2′-Dimethoxy[1,1′-biphenyl]-4-yl)carbonyl]-10,11-dihydro-5H-pyrrolo[2,1-c][1,4]benzodiazepin-3-yl][(3R)-3-(dimethylamino)pyrrolidinyl]methanone] | – | 84% |
| COc1cccc(-c2ccc(C(=O)N3Cc4ccc(C(=O)NCCC5CCCN5C)n4Cc4ccccc43)cc2C)c1 (stereo not drawn) [Example 164, 10-[(3′-Methoxy-2-methyl[1′1′-biphenyl]-4-yl)carbonyl]-N-[2-(1-methyl-2-pyrrolidinyl)ethyl]-10,11-dihydro-5H-pyrrolo[2,1-c][1,4]benzodiazepine-3-carboxamide] | – | 54% |
| COC(=O)c1ccc2c(c1)N(C(=O)c1ccc(-c3ccccc3C(F)(F)F)c(C)c1)Cc1cccn1C2 [Example 26, Methyl 10-{[2-methyl-2′-trifluoromethyl-[1,1′-biphenyl]-4-yl]carbonyl}-10,11-dihydro-5H-pyrrolo[2,1-c][1.4]benzodiazepine-8-carboxylate] | – | 17% |

The next lines start with results.

| inhibition at 0.1 µM | Structure (SMILES) | OT % inhibition @ 100% nM |
| --- | --- | --- |
| 31% | COc1ccccc1-c1ccc(C(=O)N2Cc3ccc(C(=O)NCCCn4ccnc4)n3Cc3ccccc32)cc1OC [Example 132, 10-[(2,2′-Dimethoxy[1,1′-biphenyl]-4-yl)carbonyl]-N-[3-(1H-imidazol-1-yl)propyl]-10,11-dihydro-5H-pyrrolo[2,1-c][1,4]benzodiazepine-3-carboxamide] | – |
| 78% | Cc1cc(C(=O)N2Cc3ccc(C(=O)N4CCC(N5CCCC5)CC4)n3Cc3ccccc32)ccc1-c1ccccc1C(F)(F)F [Example 148, (10-{[2-Methyl-2′-(trifluoromethyl)[1,1′-biphenyl]-4-yl]carbonyl}-10,11-dihydro-5H-pyrrolo[2,1-c][1,4]benzodiazepin-3-yl)[4-(1-pyrrolidinyl)-1-piperidinyl]methanone] | – |
| 76% | COc1cccc(-c2ccc(C(=O)N3Cc4ccc(C(=O)N5CCC(N6CCCC6)CC5)n4Cc4ccccc43)cc2C)c1 [Example 139, {10-[(3′-Methoxy-2-methyl[1,1′-biphenyl]-4-yl)carbonyl]-10,11-dihydro-5H-pyrrolo[2,1-c][1,4]benzodiazepin-3-yl}[4-(1-pyrrolidinyl)-1-piperidinyl]methanone] | – |
| 26% | COc1cc(C(=O)N2Cc3ccc(C(=O)NCCCn4ccnc4)n3Cc3ccccc32)ccc1-c1cccc2ccccc12 [Example 131, N-[3-(1H-Imidazol-1-yl)propyl]-10-[3-methoxy-4-(1-naphthyl)benzoyl]-10,11-dihydro-5H-pyrrolo[2,1-c][1,4]benzodiazepine-3-carboxamide] | – |
| 52% | COc1cc(-c2ccccc2C)c(Cl)cc1C(=O)N1Cc2ccc(C(=O)NCCCn3ccnc3)n2Cc2ccccc21 [Example 129, 10-[(6-Chloro-3-methoxy-2′-methyl[1,1′-biphenyl]-4-yl)carbonyl]-N-[3-(1H-imidazol-1-yl)propyl]-10,11-dihydro-5H-pyrrolo[2,1-c][1,4]benzodiazepine-3-carboxamide] | – |
| 87% | COc1ccccc1-c1ccc(C(=O)N2Cc3ccc(C(=O)N(C)CCCN(C)C)n3Cc3ccccc32)cc1OC [Example 107, 10-[(2,2′-Dimethoxy[1,1′-biphenyl]-4-yl)carbonyl]-N-[3-(dimethylamino)propyl]-N-methyl-10,11-dihydro-5H-pyrrolo[2,1-c][1,4]benzodiazepine-3-carboxamide] | – |
| 89% | COc1ccccc1-c1ccc(C(=O)N2Cc3ccc(C(=O)N4CCC(N5CCCCC5)CC4)n3Cc3ccccc32)cc1C [Example 112, {10-[(2-Methyl-2′-methoxy[1,1′-biphenyl]-4-yl)carbonyl]-10,11-dihydro-5H-pyrrolo[2,1-c][1,4]benzodiazepin-3-yl}[4-(1-piperidinyl)-1-piperidinyl]methanone] | – |
| 84% | COc1cc(C(=O)N2Cc3ccc(C(=O)N4CCC(N5CCCCC5)CC4)n3Cc3ccccc32)ccc1-c1ccccc1C [Example 116, {10-[(2-Methoxy-2′-methyl[1,1′-biphenyl]-4-yl)carbonyl]-10,11-dihydro-5H-pyrrolo[2,1-c][1,4]benzodiazepin-3-yl}[4-(1-piperidinyl)-1-piperidinyl]methanone] | – |
| 75% | COc1ccccc1-c1ccc(C(=O)N2Cc3ccc(C(=O)NCCN4CCCCC4)n3Cc3ccccc32)cc1C [Example 149, 10-[(2′-Methoxy-2-methyl[1,1′-biphenyl]-4-yl)carbonyl]-N-[2-(1-piperidinyl)ethyl]-10,11-dihydro-5H-pyrrolo[2,1-c][1,4]benzodiazepine-3-carboxamide] | – |
| 83% | COc1cc(C(=O)N2Cc3ccc(C(=O)N4CCC(N5CCCC5)CC4)n3Cc3ccccc32)ccc1-c1ccccc1C [Example 142, {10-[(2-Methoxy-2′-methyl[1,1′-biphenyl]-4-yl)carbonyl]-10,11-dihydro-5H-pyrrolo[2,1-c][1,4]benzodiazepin-3-yl}[4-(1-pyrrolidinyl)-1-piperidinyl]methanone] | – |
